Experiments:
[1] = tested on: MV4-11 cells; assay: Inhibition of MV4-11 cell proliferation (CellTiterGlo, 72 h); type: cell-based; details: Homo sapiens; 72 h growth inhibition; uncertainty ±20%
Experimental: MV4-11 cells cannot grow and survive without active FLT3ITD.
To measure proliferation inhibition by test compounds, the luciferase based CellTiterGlo reagent (Promega), which quantifies total cell number based on total cellular ATP concentration, was used. Cells are plated at 10,000 cells per well in 100 ul of in RPMI media containing penn/strep, 10% FBS and 1 ng/ml GM-CSF or 1 ng/ml IL-3 for MV4-11 and Baf3 cells respectively.
Compound dilutions or 0.1% DMSO (vehicle control) are added to cells and the cells are allowed to grow for 72 hours at standard cell growth conditions (37° C., 5% CO2). For activity measurements in MV4-11 cells grown in 50% plasma, cells were plated at 10,000 cells per well in a 1:1 mixture of growth media and human plasma (final volume of 100 μL). To measure total cell growth an equal volume of CellTiterGlo reagent was added to each well, according to the manufacturer's instructions, and luminescence was quantified. Total cell growth was quantified as the difference in luminescent counts (relative light units, RLU) of cell number at Day 0 compared to total cell number at Day 3 (72 hours of growth and/or compound treatment). One hundred percent inhibition of growth is defined as an RLU equivalent to the Day 0 reading. Zero percent inhibition was defined as the RLU signal for the DMSO vehicle control at Day 3 of growth. All data points are an average of triplicate samples. […] Inhibition and IC50 data analysis was done with GraphPad Prism using a non-linear regression fit with a multiparamater, sigmoidal dose-response (variable slope) equation.
MV4-11 cells express the FLT3 internal tandem duplication mutation, and thus are entirely dependent upon FLT3 activity for growth. […] In contrast, the Baf3 cell proliferation is driven by the cytokine IL-3 and thus are used as a non-specific toxicity control for test compounds.

[2] = biological target: T1, wild-type FLT3 receptor (Homo sapiens, UniProt P36888); assay: Cell-based FLT3 receptor ELISA (FLT ligand-induced phosphorylation in Baf3 FLT3 cells); details: 100 ng/mL Flt ligand, uncertainty ±20%
T1 construct: host or cells: Baf3 (murine B cell lymphoma line), stably transfected
T1 sequence (P36888 27-993): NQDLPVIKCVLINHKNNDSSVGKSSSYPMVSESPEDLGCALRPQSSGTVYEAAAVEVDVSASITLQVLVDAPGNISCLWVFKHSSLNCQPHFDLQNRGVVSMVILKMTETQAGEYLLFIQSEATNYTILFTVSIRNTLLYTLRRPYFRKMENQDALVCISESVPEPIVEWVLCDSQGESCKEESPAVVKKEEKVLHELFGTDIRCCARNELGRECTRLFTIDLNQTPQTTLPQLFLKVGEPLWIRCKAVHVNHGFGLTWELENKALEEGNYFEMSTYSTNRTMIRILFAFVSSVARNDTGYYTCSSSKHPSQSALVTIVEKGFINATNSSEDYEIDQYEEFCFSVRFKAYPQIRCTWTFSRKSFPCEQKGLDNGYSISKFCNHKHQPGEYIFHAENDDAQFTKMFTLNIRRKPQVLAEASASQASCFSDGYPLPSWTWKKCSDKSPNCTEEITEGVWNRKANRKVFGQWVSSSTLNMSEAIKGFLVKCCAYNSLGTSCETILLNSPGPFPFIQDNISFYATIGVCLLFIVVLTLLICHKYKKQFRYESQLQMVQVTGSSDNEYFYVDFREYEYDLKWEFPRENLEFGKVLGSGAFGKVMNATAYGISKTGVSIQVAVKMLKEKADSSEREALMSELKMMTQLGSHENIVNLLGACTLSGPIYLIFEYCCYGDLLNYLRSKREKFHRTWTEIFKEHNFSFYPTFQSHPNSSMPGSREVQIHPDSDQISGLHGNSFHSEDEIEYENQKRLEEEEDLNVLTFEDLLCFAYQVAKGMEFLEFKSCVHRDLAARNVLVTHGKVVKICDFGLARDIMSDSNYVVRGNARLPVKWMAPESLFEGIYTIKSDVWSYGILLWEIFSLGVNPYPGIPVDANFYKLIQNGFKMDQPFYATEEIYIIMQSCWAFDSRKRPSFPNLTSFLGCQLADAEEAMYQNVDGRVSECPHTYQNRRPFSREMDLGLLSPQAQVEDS
Experimental: Specific cellular inhibition of FLT ligand-induced wild-type FLT3 phosphorylation was measured in the following manner: Baf3 FLT3 cells overexpressing the FLT3 receptor were obtained from Dr. Michael Heinrich (Oregon Health and Sciences University). The Baf3 FLT3 cell lines were created by stable transfection of parental Baf3 cells (a murine B cell lymphoma line dependent on the cytokine IL-3 for growth) with wild-type FLT3. Cells were selected for their ability to grow in the absence of IL-3 and in the presence of FLT3 ligand. Baf3 cells were maintained in RPMI 1640 with 10% FBS, penn/strep and 10 ng/ml FLT ligand at 37° C., 5% CO2. To measure direct inhibition of the wild-type FLT3 receptor activity and phosphorylation a sandwich ELISA method was developed similar to those developed for other RTKs (see Sadick, M D, Sliwkowski, M X, Nuijens, A, Bald, L, Chiang, N, Lofgren, J A, Wong W L T. Analysis of Heregulin-Induced ErbB2 Phosphorylation with a High-Throughput Kinase Receptor Activation Enzyme-Linked Immunsorbent Assay, Analytical Biochemistry. 1996; 235:207-214 and Baumann C A, Zeng L, Donatelli R R, Maroney A C. Development of a quantitative, high-throughput cell-based enzyme-linked immunosorbent assay for detection of colony-stimulating factor-1 receptor tyrosine kinase inhibitors. J Biochem Biophys Methods. 2004; 60:69-79.). 200 μL of Baf3FLT3 cells (1×10^6 /mL) were plated in 96 well dishes in RPMI 1640 with 0.5% serum and 0.01 ng/mL IL-3 for 16 hours prior to 1 hour compound or DMSO vehicle incubation. Cells were treated with 100 ng/mL Flt ligand (R&D Systems Cat# 308-FK) for 10 min. at 37° C. Cells were pelleted, washed and lysed in 100 ul lysis buffer (50 mM Hepes, 150 mM NaCl, 10% Glycerol, 1% Triton-X-100, 10 mM NaF, 1 mM EDTA, 1.5 mM MgCl2, 10 mM NaPyrophosphate) supplemented with phosphatase (Sigma Cat# P2850) and protease inhibitors (Sigma Cat #P8340). Lysates were cleared by centrifugation at 1000×g for 5 minutes at 4° C. Cell lysates were transferred to white wall 96 well microtiter (Costar #9018) plates coated with 50 ng/well anti-FLT3 antibody (Santa Cruz Cat# sc-480) and blocked with SeaBlock reagent (Pierce Cat#37527). Lysates were incubated at 4° C. for 2 hours. Plates were washed 3× with 200 ul/well PBS/0.1% Triton-X-100. Plates were then incubated with 1:8000 dilution of HRP-conjugated anti-phosphotyrosine antibody (Clone 4G10, Upstate Biotechnology Cat#16-105) for 1 hour at room temperature. Plates were washed 3× with 200 ul/well PBS/0.1% Triton-X-100. Signal detection with Super Signal Pico reagent (Pierce Cat#37070) was done according to manufacturer's instruction with a Berthold microplate luminometer. All data points are an average of triplicate samples. […] Inhibition and IC50 data analysis was done with GraphPad Prism using a non-linear regression fit with a multiparamater, sigmoidal dose-response (variable slope) equation.

[3] = biological target: T2, isolated kinase domain of the human FLT3 receptor (a.a. 571-993) (Homo sapiens, UniProt P36888); assay: FLT3 fluorescence polarization kinase assay; type: biochemical; details: 150 uM ATP; uncertainty ±10%
T2 construct: human FLT3 receptor (a.a. 571-993)
T2 sequence (P36888 571-993): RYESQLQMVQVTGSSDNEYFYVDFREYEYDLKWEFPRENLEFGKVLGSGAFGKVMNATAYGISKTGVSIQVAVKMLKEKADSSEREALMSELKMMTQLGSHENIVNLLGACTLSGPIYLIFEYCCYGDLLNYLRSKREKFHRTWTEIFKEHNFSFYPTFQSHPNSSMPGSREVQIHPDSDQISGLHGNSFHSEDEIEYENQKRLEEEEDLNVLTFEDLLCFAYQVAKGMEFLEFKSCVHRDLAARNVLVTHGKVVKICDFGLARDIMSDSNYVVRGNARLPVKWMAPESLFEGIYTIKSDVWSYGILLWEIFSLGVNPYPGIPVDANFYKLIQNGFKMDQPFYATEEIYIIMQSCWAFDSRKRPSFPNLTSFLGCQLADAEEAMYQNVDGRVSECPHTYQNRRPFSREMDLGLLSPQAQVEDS
Experimental: The FLT3 FP assay utilizes the fluorescein-labeled phosphopeptide and the anti-phosphotyrosine antibody included in the Panvera Phospho-Tyrosine Kinase Kit (Green) supplied by Invitrogen. When FLT3 phosphorylates polyGlu4Tyr, the fluorescein-labeled phosphopeptide is displaced from the anti-phosphotyrosine antibody by the phosphorylated poly Glu4Tyr, thus decreasing the FP value. The FLT3 kinase reaction is incubated at room temperature for 30 minutes under the following conditions: 10 nM FLT3 571-993, 20 ug/mL poly Glu4Tyr, 150 uM ATP, 5 mM MgCl2, 1% compound in DMSO. The kinase reaction is stopped with the addition of EDTA. The fluorescein-labeled phosphopeptide and the anti-phosphotyrosine antibody are added and incubated for 30 minutes at room temperature.
All data points are an average of triplicate samples. Inhibition and IC50 data analysis was done with GraphPad Prism using a non-linear regression fit with a multiparamater, sigmoidal dose-response (variable slope) equation.

| Structure (SMILES) | IC50 [1] [nM] | IC50 [2] [nM] | IC50 [3] [nM] |
| --- | --- | --- | --- |
| COc1cc2ncnc(C3CCN(C(=O)Nc4ccc(Cl)cc4)CC3)c2cc1OC [Example 49, 4-(6,7-Dimethoxy-quinazolin-4-yl)-piperidine-1-carboxylic acid (4-chloro-phenyl)-amide] | 7000 | > 3000 | – |
| COc1cc2ncnc(C3CCN(C(=O)Nc4ccc(C5CCNCC5)cc4)CC3)c2cc1OC [Example 64, 4-(6,7-Dimethoxy-quinazolin-4-yl)-piperidine-1-carboxylic acid (4-piperidin-4-yl-phenyl)-amide] | 330 | 357 | – |
| O=C(Nc1ccc(N2CCOCC2)cc1)N1CCC(c2ncnc3cc(OCCCN4CCNCC4)ccc23)CC1 [Example 123, 4-[7-(3-Piperazin-1-yl-propoxy)-quinazolin-4-yl]-piperidine-1-carboxylic acid (4-morpholin-4-yl-phenyl)-amide] | – | 2 | 8 |
| CN1CCC(Oc2ccc3c(C4CCN(C(=O)Nc5ccc(N6CCOCC6)cc5)CC4)ncnc3c2)CC1 [Example 127, 4-[7-(1-Methyl-piperidin-4-yloxy)-quinazolin-4-yl]-piperidine-1-carboxylic acid (4-morpholin-4-yl-phenyl)-amide] | – | 37 | 260 |
| COC[C@H]1CCCN1c1ccc2c(C3CCN(C(=O)Nc4ccc(N5CCOCC5)cc4)CC3)ncnc2c1 [Example 130, (R)-4-[7-(2-Methoxymethyl-pyrrolidin-1-yl)-quinazolin-4-yl]-piperidine-1-carboxylic acid (4-morpholin-4-yl-phenyl)-amide] | – | 586 | 626 |
